Assay results from patent US6525001B1, “Substituted pyrimidine and pyridine herbicides” (Mid-American Commercialization Corporation, priority 1997, dated 2003).

Experiments:
Assay in all cases: Test D
Type in all cases: in vivo
[1] = system: lambsquarters (Chenopodium album); settings: PREEMERGENCE
[2] = system: scentless chamomile (Matricaria inodora); settings: PREEMERGENCE
[3] = system: common poppy (Papaver rhoeas); parameters: key: 0 is no effect; 100 is complete control; settings: PREEMERGENCE
[4] = system: deadnettle (Lamium amplexicaule); parameters: key: 0 is no effect; 100 is complete control; settings: POSTEMERGENCE
Experimental: (§1) Compounds evaluated in this test were formulated in a non-phytotoxic solvent mixture which included a surfactant and applied to plants that were in the 1- to 4-leaf stage (postemergence application). A mixture of sandy loam soil and greenhouse potting mix in a 60:40 ratio was used for the postemergence test.
(§2) Plantings of these crops and weed species were adjusted to produce plants of appropriate size for the postemergence test. All plant species were grown using normal greenhouse practices. Crop and weed species include alfalfa (Medicago sativa), annual bluegrass (Poa annua), blackgrass (Alopecurus myosuroides), black nightshade (Solanum nigra), chickweed (Stellaria media), common poppy (Papaver rhoeas), deadnettle (Lamium amplexicaule), downy brome (Bromus tectorum), field violet (Viola arvensis), galium 2 (Galium aparine), green foxtail (Setaria viridis), Italian ryegrass (Lolium multiflorum), jointed goatgrass (Aegilops cylindrica), kochia (Kochia scoparia), lambsquarters (Chenopodium album), lentil (Lens culinaris), littleseed canarygrass (Phalaris minor), pea (Pisum sativum), potato (Solanum tuberosum), rape (Brassica napus), redroot pigweed (Amaranthus retroflexus), Russian thistle (Salsola kali), scentless chamomile (Matricaria inodora), sorghum (Sorghum vulgare), spring barley (Hordeum vulgare), sugar beet (Beta vulgaris), sunflower (Helianthus annuus), ivyleaf speedwell (Veronica hederaefolia), spring wheat (Triticum aestivum), winter wheat (Triticum aestivum), wild buckwheat (Polygonum convolvulus), wild mustard (Sinapis arvensis), wild oat (Avena fatua), windgrass (Apera spica-venti) and winter barley (Hordeum vulgare).
(§3) Treated plants and untreated controls were maintained in a greenhouse for approximately 21 to 28 days, after which all treated plants were compared to untreated controls and visually evaluated. Plant response ratings, summarized in Table D, are based upon a 0 to 100 scale where 0 is no effect and 100 is complete control. A dash response (−) means no test result.

[5] = system: wild mustard (Sinapis arvensis); parameters: key: 0 is no effect; 100 is complete control; settings: POSTEMERGENCE
Experimental: as §1, §2, §3

rape (Brassica napus) = system: rape (Brassica napus); parameters: key: 0 is no effect; 100 is complete control; settings: POSTEMERGENCE
Experimental: as §1, §2, §3

[6] = system: sugar beet (Beta vulgaris); parameters: key: 0 is no effect; 100 is complete control; settings: POSTEMERGENCE
Experimental: as §1, §2, §3

[7] = system: black nightshade (Solanum nigra); parameters: key: 0 is no effect; 100 is complete control; settings: POSTEMERGENCE
Experimental: as §1, §2, §3

[8] = system: common poppy (Papaver rhoeas); parameters: key: 0 is no effect; 100 is complete control; settings: POSTEMERGENCE
Experimental: as §1, §2, §3

[9] = system: chickweed (Stellaria media); parameters: key: 0 is no effect; 100 is complete control; settings: POSTEMERGENCE
Experimental: as §1, §2, §3

[10] = system: blackgrass (Alopecurus myosuroides); settings: PREEMERGENCE
[11] = system: wild buckwheat (Polygonum convolvulus); settings: PREEMERGENCE
wild oat (Avena fatua) = system: wild oat (Avena fatua); parameters: key: 0 is no effect; 100 is complete control; settings: PREEMERGENCE
[12] = system: green foxtail (Setaria viridis); parameters: key: 0 is no effect; 100 is complete control; settings: PREEMERGENCE
[13] = system: blackgrass (Alopecurus myosuroides); settings: POSTEMERGENCE
Outline: (§4)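 Compounds were formulated in a non-phytotoxic solvent mixture containing surfactant; in the postemergence test they were sprayed on plants at the 1- to 4-leaf stage grown in 60:40 sandy loam soil:greenhouse potting mix. After approximately 21 to 28 days in the greenhouse, injury was rated visually against untreated controls on a 0–100 scale (100 = complete control).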

[14] = system: downy brome (Bromus tectorum); settings: POSTEMERGENCE
Outline: as §4

[15] = system: littleseed canarygrass (Phalaris minor); settings: POSTEMERGENCE
Outline: as §4

[16] = system: jointed goatgrass (Aegilops cylindrica); settings: POSTEMERGENCE
Outline: as §4

[17] = system: winter barley (Hordeum vulgare); settings: POSTEMERGENCE
Outline: as §4

[18] = system: windgrass (Apera spica-venti); settings: POSTEMERGENCE
Outline: as §4

[19] = system: ivyleaf speedwell (Veronica hederaefolia); parameters: key: 0 is no effect; 100 is complete control; settings: PREEMERGENCE

CCc1cnc(-c2ccc(C(F)(F)F)cc2)nc1Cc1cccc(C(F)(F)F)c1 [Compound 22]
0: Plant response rating, Wild oat (wild oat (Avena fatua); Rate 62 g/ha)
90: Plant response rating, Deadnettle ([4]; Rate 125 g/ha) | Plant response rating, Rape (rape (Brassica napus); Rate 62 g/ha) | Plant response rating, Rape (rape (Brassica napus); Rate 125 g/ha) | Plant response rating, Blk nightshade ([7]; Rate 62 g/ha)
10: Plant response rating, Green foxtail ([12]; Rate 62 g/ha) | Plant response rating, Blackgrass ([13]; Rate 62 g/ha) | Plant response rating, Downy brome ([14]; Rate 62 g/ha) | Plant response rating, Jointed goatgra ([16]; Rate 62 g/ha) | Plant response rating, Barley (winter) ([17]; Rate 62 g/ha) | Plant response rating, Barley (winter) ([17]; Rate 125 g/ha)
50: Plant response rating, Deadnettle ([4]; Rate 62 g/ha)
40: Plant response rating, Blackgrass ([10]; Rate 250 g/ha)
30: Plant response rating, Blackgrass ([10]; Rate 62 g/ha) | Plant response rating, Wild buckwheat ([11]; Rate 250 g/ha) | Plant response rating, Wild oat (wild oat (Avena fatua); Rate 125 g/ha) | Plant response rating, Wild oat (wild oat (Avena fatua); Rate 250 g/ha) | Plant response rating, Windgrass ([18]; Rate 62 g/ha)
70: Plant response rating, Lambsquarters ([1]; Rate 125 g/ha) | Plant response rating, Lambsquarters ([1]; Rate 250 g/ha) | Plant response rating, Scentless chamo ([2]; Rate 125 g/ha) | Plant response rating, Scentless chamo ([2]; Rate 250 g/ha) | Plant response rating, Common poppy ([3]; Rate 125 g/ha) | Plant response rating, Common poppy ([3]; Rate 250 g/ha)
60: Plant response rating, Lambsquarters ([1]; Rate 62 g/ha) | Plant response rating, Scentless chamo ([2]; Rate 62 g/ha) | Plant response rating, Common poppy ([3]; Rate 62 g/ha) | Plant response rating, Chickweed ([9]; Rate 62 g/ha) | Plant response rating, Blackgrass ([10]; Rate 125 g/ha) | Plant response rating, LS canarygrass ([15]; Rate 125 g/ha)
100: Plant response rating, Wild mustard ([5]; Rate 62 g/ha) | Plant response rating, Wild mustard ([5]; Rate 125 g/ha) | Plant response rating, Sugar beet ([6]; Rate 62 g/ha) | Plant response rating, Sugar beet ([6]; Rate 125 g/ha) | Plant response rating, Blk nightshade ([7]; Rate 125 g/ha) | Plant response rating, Common poppy ([8]; Rate 62 g/ha) | Plant response rating, Common poppy ([8]; Rate 125 g/ha) | Plant response rating, Chickweed ([9]; Rate 125 g/ha) | Plant response rating, Green foxtail ([12]; Rate 125 g/ha) | Plant response rating, Green foxtail ([12]; Rate 250 g/ha)
20: Plant response rating, Blackgrass ([13]; Rate 125 g/ha) | Plant response rating, Downy brome ([14]; Rate 125 g/ha) | Plant response rating, LS canarygrass ([15]; Rate 62 g/ha)
55: Plant response rating, Wild buckwheat ([11]; Rate 125 g/ha)
15: Plant response rating, Jointed goatgra ([16]; Rate 125 g/ha)

Cc1cnc(-c2ccc(C(F)(F)F)cc2)nc1Cc1cccc(C(F)(F)F)c1 [Example 1, 5-methyl-2-[4-(trifluoromethyl)phenyl]-4-[[3-(trifluoromethyl)phenyl]methyl]pyrimidine]
85: Plant response rating, Scentless chamo ([2]; Rate 250 g/ha) | Plant response rating, Deadnettle ([4]; Rate 16 g/ha) | Plant response rating, Wild mustard ([5]; Rate 16 g/ha) | Plant response rating, Rape (rape (Brassica napus); Rate 125 g/ha) | Plant response rating, Wild buckwheat ([11]; Rate 125 g/ha) | Plant response rating, Wild buckwheat ([11]; Rate 250 g/ha)
40: Plant response rating, Wild buckwheat ([11]; Rate 31 g/ha)
50: Plant response rating, Blk nightshade ([7]; Rate 62 g/ha) | Plant response rating, Blk nightshade ([7]; Rate 125 g/ha) | Plant response rating, Common poppy ([8]; Rate 16 g/ha) | Plant response rating, Blackgrass ([10]; Rate 62 g/ha) | Plant response rating, Ivyleaf speedwe ([19]; Rate 31 g/ha)
90: Plant response rating, Sugar beet ([6]; Rate 62 g/ha) | Plant response rating, Wild oat (wild oat (Avena fatua); Rate 250 g/ha)
60: Plant response rating, Blk nightshade ([7]; Rate 16 g/ha) | Plant response rating, Blackgrass ([10]; Rate 125 g/ha) | Plant response rating, Wild oat (wild oat (Avena fatua); Rate 62 g/ha) | Plant response rating, Wild oat (wild oat (Avena fatua); Rate 125 g/ha) | Plant response rating, Green foxtail ([12]; Rate 31 g/ha)
30: Plant response rating, Scentless chamo ([2]; Rate 31 g/ha) | Plant response rating, Blackgrass ([10]; Rate 31 g/ha) | Plant response rating, Blackgrass ([13]; Rate 125 g/ha) | Plant response rating, Windgrass ([18]; Rate 125 g/ha)
2: Plant response rating, Downy brome ([14]; Rate 16 g/ha)
65: Plant response rating, Rape (rape (Brassica napus); Rate 16 g/ha)
100: Plant response rating, Common poppy ([3]; Rate 62 g/ha) | Plant response rating, Common poppy ([3]; Rate 125 g/ha) | Plant response rating, Common poppy ([3]; Rate 250 g/ha) | Plant response rating, Wild mustard ([5]; Rate 31 g/ha) | Plant response rating, Wild mustard ([5]; Rate 62 g/ha) | Plant response rating, Wild mustard ([5]; Rate 125 g/ha) | Plant response rating, Rape (rape (Brassica napus); Rate 31 g/ha) | Plant response rating, Rape (rape (Brassica napus); Rate 62 g/ha) | Plant response rating, Sugar beet ([6]; Rate 125 g/ha) | Plant response rating, Common poppy ([8]; Rate 31 g/ha) | Plant response rating, Common poppy ([8]; Rate 62 g/ha) | Plant response rating, Common poppy ([8]; Rate 125 g/ha) | Plant response rating, Ivyleaf speedwe ([19]; Rate 62 g/ha) | Plant response rating, Ivyleaf speedwe ([19]; Rate 125 g/ha) | Plant response rating, Ivyleaf speedwe ([19]; Rate 250 g/ha) | Plant response rating, Green foxtail ([12]; Rate 62 g/ha) | Plant response rating, Green foxtail ([12]; Rate 125 g/ha) | Plant response rating, Green foxtail ([12]; Rate 250 g/ha)
75: Plant response rating, Scentless chamo ([2]; Rate 125 g/ha) | Plant response rating, Sugar beet ([6]; Rate 31 g/ha)
10: Plant response rating, Lambsquarters ([1]; Rate 31 g/ha) | Plant response rating, Blackgrass ([13]; Rate 16 g/ha) | Plant response rating, Blackgrass ([13]; Rate 31 g/ha) | Plant response rating, Blackgrass ([13]; Rate 62 g/ha) | Plant response rating, Downy brome ([14]; Rate 31 g/ha) | Plant response rating, Downy brome ([14]; Rate 62 g/ha) | Plant response rating, Downy brome ([14]; Rate 125 g/ha) | Plant response rating, LS canarygrass ([15]; Rate 16 g/ha) | Plant response rating, LS canarygrass ([15]; Rate 31 g/ha) | Plant response rating, Jointed goatgra ([16]; Rate 31 g/ha) | Plant response rating, Jointed goatgra ([16]; Rate 62 g/ha) | Plant response rating, Jointed goatgra ([16]; Rate 125 g/ha) | Plant response rating, Barley (winter) ([17]; Rate 31 g/ha) | Plant response rating, Barley (winter) ([17]; Rate 62 g/ha) | Plant response rating, Barley (winter) ([17]; Rate 125 g/ha)
80: Plant response rating, Common poppy ([3]; Rate 31 g/ha) | Plant response rating, Chickweed ([9]; Rate 16 g/ha) | Plant response rating, Chickweed ([9]; Rate 62 g/ha) | Plant response rating, Wild buckwheat ([11]; Rate 62 g/ha)
45: Plant response rating, Sugar beet ([6]; Rate 16 g/ha)
20: Plant response rating, Wild oat (wild oat (Avena fatua); Rate 31 g/ha) | Plant response rating, LS canarygrass ([15]; Rate 62 g/ha) | Plant response rating, LS canarygrass ([15]; Rate 125 g/ha) | Plant response rating, Windgrass ([18]; Rate 31 g/ha)
5: Plant response rating, Jointed goatgra ([16]; Rate 16 g/ha) | Plant response rating, Barley (winter) ([17]; Rate 16 g/ha) | Plant response rating, Windgrass ([18]; Rate 16 g/ha)
70: Plant response rating, Lambsquarters ([1]; Rate 62 g/ha) | Plant response rating, Lambsquarters ([1]; Rate 125 g/ha) | Plant response rating, Lambsquarters ([1]; Rate 250 g/ha) | Plant response rating, Scentless chamo ([2]; Rate 62 g/ha) | Plant response rating, Deadnettle ([4]; Rate 31 g/ha) | Plant response rating, Deadnettle ([4]; Rate 62 g/ha) | Plant response rating, Deadnettle ([4]; Rate 125 g/ha) | Plant response rating, Chickweed ([9]; Rate 125 g/ha) | Plant response rating, Blackgrass ([10]; Rate 250 g/ha)
